Measurements reported in ChEMBL document CHEMBL1201862, “PubChem BioAssay data set” (2004).
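Each compound was tested at five concentrations against cells in 96-well plates for 48 hours. Abbreviation: GI50, concentration required for 50% inhibition of growth.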 Activity calls are given as the source filed them. Rule as the data show it: active = GI50 up to about 1.1 µM and inactive = higher.

Key:
Assay in all cases: NCI anticancer screen, dose series, 48 h
A549 = tested on: A549
SN12C = tested on: SN12C
HOP-18 = tested on: HOP-18
CAKI-1 = tested on: CAKI-1
SK-MEL-28 = tested on: SK-MEL-28
U-251 = tested on: U-251
SK-OV-3 = tested on: SK-OV-3
UACC-62 = tested on: UACC-62
HCT-116 = tested on: HCT-116
UO-31 = tested on: UO-31
COLO 205 = tested on: COLO 205
HT-29 = tested on: HT-29
KM-20L2 = tested on: KM-20L2
OVCAR-5 = tested on: OVCAR-5
KM12 = tested on: KM12
IGROV-1 = tested on: IGROV-1
786-0 = tested on: 786-0
NCI-H460 = tested on: NCI-H460
HL-60 = tested on: HL-60
DMS-273 = tested on: DMS-273
SK-MEL-5 = tested on: SK-MEL-5
K562 = tested on: K562
SF-539 = tested on: SF-539
MOLT-4 = tested on: MOLT-4
SNB-19 = tested on: SNB-19
HCC 2998 = tested on: HCC 2998
LOX IMVI = tested on: LOX IMVI
LXFL 529 = tested on: LXFL 529
HCT-15 = tested on: HCT-15
A498 = tested on: A498
SF-268 = tested on: SF-268
M19-MEL = tested on: M19-MEL
Malme-3M = tested on: Malme-3M
SW-620 = tested on: SW-620
SK-MEL-2 = tested on: SK-MEL-2
DLD-1 = tested on: DLD-1
DMS-114 = tested on: DMS-114
HOP-62 = tested on: HOP-62
SR = tested on: SR
NCI-H522 = tested on: NCI-H522
OVCAR-3 = tested on: OVCAR-3
TK-10 = tested on: TK-10
M14 = tested on: M14
RXF 393 = tested on: RXF 393
OVCAR-8 = tested on: OVCAR-8
OVCAR-4 = tested on: OVCAR-4
SF-295 = tested on: SF-295
CCRF-CEM = tested on: CCRF-CEM
RPMI-8226 = tested on: RPMI-8226
NCI-H23 = tested on: NCI-H23
SNB-75 = tested on: SNB-75
ACHN = tested on: ACHN
HOP-92 = tested on: HOP-92
NCI/ADR-RES = tested on: NCI/ADR-RES
NCI-H226 = tested on: NCI-H226
MCF7 = tested on: MCF7
SNB-78 = tested on: SNB-78
XF498 = tested on: XF498
EKVX = tested on: EKVX
UACC-257 = tested on: UACC-257

Compound: Nc1nc(SCc2ccccc2Cl)c2ncn(C3OC(CO)C(O)C3O)c2n1 (stereo not given)
- GI50 (A549): 96.6 µM (inactive)
- GI50 (SN12C): > 100 µM (inactive)
- GI50 (HOP-18): > 100 µM (inactive)
- GI50 (CAKI-1): > 100 µM (inactive)
- GI50 (SK-MEL-28): 69.2 µM (inactive)
- GI50 (U-251): > 100 µM (inactive)
- GI50 (SK-OV-3): > 100 µM (inactive)
- GI50 (UACC-62): 72.3 µM (inactive)
- GI50 (HCT-116): 42.4 µM (inactive)
- GI50 (UO-31): 29.1 µM (inactive)
- GI50 (COLO 205): > 100 µM (inactive)
- GI50 (HT-29): > 100 µM (inactive)
- GI50 (KM-20L2): > 100 µM (inactive)
- GI50 (OVCAR-5): > 100 µM (inactive)
- GI50 (KM12): > 100 µM (inactive)
- GI50 (IGROV-1): > 100 µM (inactive)
- GI50 (786-0): > 100 µM (inactive)
- GI50 (NCI-H460): > 100 µM (inactive)
- GI50 (HL-60): 50.5 µM (inactive)
- GI50 (DMS-273): 65.6 µM (inactive)
- GI50 (SK-MEL-5): 54.2 µM (inactive)
- GI50 (K562): 57 µM (inactive)
- GI50 (SF-539): 89.1 µM (inactive)
- GI50 (MOLT-4): 49.3 µM (inactive)
- GI50 (SNB-19): 38.8 µM (inactive)
- GI50 (HCC 2998): > 100 µM (inactive)
- GI50 (LOX IMVI): 68.9 µM (inactive)
- GI50 (LXFL 529): 50.9 µM (inactive)
- GI50 (HCT-15): > 100 µM
- GI50 (A498): 87.3 µM (inactive)
- GI50 (SF-268): 80.4 µM (inactive)
- GI50 (M19-MEL): > 100 µM (inactive)
- GI50 (Malme-3M): > 100 µM (inactive)
- GI50 (SW-620): > 100 µM (inactive)
- GI50 (SK-MEL-2): > 100 µM (inactive)
- GI50 (DLD-1): > 100 µM (inactive)
- GI50 (DMS-114): 43.5 µM (inactive)
- GI50 (HOP-62): > 100 µM (inactive)
- GI50 (SR): 42.7 µM (inactive)
- GI50 (NCI-H522): 30.1 µM (inactive)
- GI50 (OVCAR-3): 80.4 µM (inactive)
- GI50 (TK-10): > 100 µM (inactive)
- GI50 (M14): > 100 µM (inactive)
- GI50 (RXF 393): 28.6 µM (inactive)
- GI50 (OVCAR-8): 89.9 µM (inactive)
- GI50 (OVCAR-4): 74.3 µM (inactive)
- GI50 (SF-295): 59.4 µM (inactive)
- GI50 (CCRF-CEM): > 100 µM (inactive)
- GI50 (RPMI-8226): 56 µM (inactive)
- GI50 (NCI-H23): > 100 µM (inactive)
- GI50 (SNB-75): 23.3 µM (inactive)
- GI50 (ACHN): > 100 µM (inactive)
- GI50 (HOP-92): 98.2 µM (inactive)

Compound: O=NN(CCCl)C(=O)Nc1ccc(Cl)c(Cl)c1
- GI50 (A549): > 100 µM (inactive)
- GI50 (NCI/ADR-RES): 48.4 µM (inactive)
- GI50 (SN12C): > 100 µM (inactive)
- GI50 (CAKI-1): 81.1 µM (inactive)
- GI50 (SK-MEL-28): > 100 µM (inactive)
- GI50 (U-251): 52 µM (inactive)
- GI50 (SK-OV-3): > 94.8 µM (inactive)
- GI50 (UACC-62): 45.9 µM (inactive)
- GI50 (HCT-116): > 100 µM (inactive)
- GI50 (UO-31): 45.7 µM (inactive)
- GI50 (COLO 205): > 100 µM (inactive)
- GI50 (HT-29): 76.6 µM (inactive)
- GI50 (NCI-H226): 46.6 µM (inactive)
- GI50 (MCF7): 38.5 µM (inactive)
- GI50 (KM-20L2): 25.3 µM (inactive)
- GI50 (OVCAR-5): > 67.9 µM (inactive)
- GI50 (KM12): > 77.3 µM (inactive)
- GI50 (SNB-78): > 56.9 µM (inactive)
- GI50 (IGROV-1): > 56.5 µM (inactive)
- GI50 (NCI-H460): 56.8 µM (inactive)
- GI50 (XF498): 72.8 µM (inactive)
- GI50 (HL-60): > 100 µM (inactive)
- GI50 (DMS-273): 72.8 µM (inactive)
- GI50 (SK-MEL-5): 71.6 µM (inactive)
- GI50 (K562): 36.9 µM (inactive)
- GI50 (SF-539): > 91.2 µM (inactive)
- GI50 (MOLT-4): > 100 µM (inactive)
- GI50 (EKVX): 46.9 µM (inactive)
- GI50 (SNB-19): > 63 µM (inactive)
- GI50 (HCC 2998): > 60.7 µM (inactive)
- GI50 (LOX IMVI): 78.5 µM (inactive)
- GI50 (HCT-15): > 71.6 µM
- GI50 (A498): > 83.8 µM (inactive)
- GI50 (SF-268): 31.6 µM (inactive)
- GI50 (M19-MEL): 69.5 µM (inactive)
- GI50 (Malme-3M): > 100 µM (inactive)
- GI50 (SW-620): > 100 µM (inactive)
- GI50 (SK-MEL-2): > 82.2 µM (inactive)
- GI50 (DLD-1): 53.5 µM (inactive)
- GI50 (DMS-114): 6.67 µM (inactive)
- GI50 (HOP-62): 0.546 µM (active)
- GI50 (NCI-H522): 28.3 µM (inactive)
- GI50 (OVCAR-3): 41.9 µM (inactive)
- GI50 (RXF 393): > 100 µM (inactive)
- GI50 (OVCAR-8): 71.6 µM (inactive)
- GI50 (OVCAR-4): 61.1 µM (inactive)
- GI50 (SF-295): 48.5 µM (inactive)
- GI50 (CCRF-CEM): 59.8 µM (inactive)
- GI50 (RPMI-8226): 50 µM (inactive)
- GI50 (NCI-H23): > 69.7 µM (inactive)
- GI50 (SNB-75): > 100 µM (inactive)
- GI50 (UACC-257): > 100 µM (inactive)
- GI50 (HOP-92): > 77.8 µM (inactive)

Compound: CC[C@]12C=CCN3CC[C@@]4(c5ccc(OC)cc5N(C)[C@H]4[C@@](O)(C(=O)OC)[C@@H]1OC(C)=O)[C@@H]32
- GI50 (A549): 162 µM (inactive)
- GI50 (NCI/ADR-RES): 156 µM (inactive)
- GI50 (SN12C): > 183 µM (inactive)
- GI50 (HOP-18): > 200 µM (inactive)
- GI50 (CAKI-1): 15.5 µM (inactive)
- GI50 (SK-MEL-28): > 200 µM (inactive)
- GI50 (U-251): > 200 µM (inactive)
- GI50 (SK-OV-3): > 200 µM (inactive)
- GI50 (UACC-62): 143 µM (inactive)
- GI50 (HCT-116): 172 µM (inactive)
- GI50 (UO-31): 59 µM (inactive)
- GI50 (COLO 205): > 185 µM (inactive)
- GI50 (HT-29): > 200 µM (inactive)
- GI50 (NCI-H226): 132 µM (inactive)
- GI50 (MCF7): 147 µM (inactive)
- GI50 (KM-20L2): > 101 µM (inactive)
- GI50 (OVCAR-5): > 200 µM (inactive)
- GI50 (KM12): > 200 µM (inactive)
- GI50 (SNB-78): 195 µM (inactive)
- GI50 (IGROV-1): > 185 µM (inactive)
- GI50 (NCI-H460): 177 µM (inactive)
- GI50 (XF498): > 172 µM (inactive)
- GI50 (HL-60): 89.3 µM (inactive)
- GI50 (DMS-273): > 140 µM (inactive)
- GI50 (SK-MEL-5): 99.5 µM (inactive)
- GI50 (K562): 131 µM (inactive)
- GI50 (SF-539): > 200 µM (inactive)
- GI50 (MOLT-4): 81.3 µM (inactive)
- GI50 (EKVX): > 151 µM (inactive)
- GI50 (SNB-19): > 200 µM (inactive)
- GI50 (HCC 2998): > 200 µM (inactive)
- GI50 (LOX IMVI): > 200 µM (inactive)
- GI50 (HCT-15): 75.3 µM
- GI50 (A498): 102 µM (inactive)
- GI50 (SF-268): 138 µM (inactive)
- GI50 (M19-MEL): 57.5 µM (inactive)
- GI50 (Malme-3M): > 200 µM (inactive)
- GI50 (SW-620): > 200 µM (inactive)
- GI50 (SK-MEL-2): 182 µM (inactive)
- GI50 (DLD-1): > 200 µM (inactive)
- GI50 (DMS-114): 140 µM (inactive)
- GI50 (HOP-62): 171 µM (inactive)
- GI50 (NCI-H522): 97.9 µM (inactive)
- GI50 (OVCAR-3): 102 µM (inactive)
- GI50 (RXF 393): 96.8 µM (inactive)
- GI50 (OVCAR-8): 19.5 µM (inactive)
- GI50 (OVCAR-4): 35.4 µM (inactive)
- GI50 (SF-295): 152 µM (inactive)
- GI50 (CCRF-CEM): 132 µM (inactive)
- GI50 (RPMI-8226): 93.8 µM (inactive)
- GI50 (NCI-H23): > 171 µM (inactive)
- GI50 (SNB-75): 51.3 µM (inactive)
- GI50 (UACC-257): 172 µM (inactive)
- GI50 (HOP-92): 46.2 µM (inactive)
